In patent US11673876B2, “Substituted aminobenzyl heteroaryl compounds as EGFR and/or PI3K inhibitors” (Mekanistic Therapeutics LLC, priority 2020, dated 2023):

Key:
Format in all cases: biochemical
[1] = target: DNA-PK (Homo sapiens (Human), UniProt P78527); assay: Z'-LYTE / Adapta kinase assay, DNA-PK; conditions: read-out: DNA-PK % Inh. @ 100 nM
From the text: (§1) The Z′-LYTE® biochemical assay employs a fluorescence-based, coupled-enzyme format and is based on the differential sensitivity of phosphorylated and non-phosphorylated peptides to proteolytic cleavage (FIG. 6). The peptide substrate is labeled with two fluorophores one at each end—that make up a FRET pair. In the primary reaction, the kinase transfers the gamma-phosphate of ATP to a single tyrosine, serine or threonine residue in a synthetic FRET-peptide. In the secondary reaction, a site-specific protease recognizes and cleaves non-phosphorylated FRET-peptides. Phosphorylation of FRET-peptides suppresses cleavage by the Development Reagent. Cleavage disrupts FRET between the donor (i.e., coumarin) and acceptor (i.e., fluorescein) fluorophores on the FRET-peptide, whereas uncleaved, phosphorylated FRET-peptides maintain FRET. A ratiometric method, which calculates the ratio (the Emission Ratio) of donor emission to acceptor emission after excitation of the donor fluorophore at 400 nm, is used to quantitate reaction progress.
(§2) A significant benefit of this ratiometric method for quantitating reaction progress is the elimination of well-to-well variations in FRET-peptide concentration and signal intensities. As a result, the assay yields very high Z′-factor values (>0.7) at a low percent phosphorylation.
(§3) Both cleaved and uncleaved FRET-peptides contribute to the fluorescence signals and therefore to the Emission Ratio. The extent of phosphorylation of the FRET-peptide can be calculated from the Emission Ratio.
(§4) Enzyme: The ADAPTA universal kinase assay is a homogenous, fluorescent based immunoassay for the detection of ADP. In contrast to ATP depletion assays, the ADAPTA assay is extremely sensitive to ADP formation such that a majority of the signal change occurs in the first 10-20% conversion of ATP to ADP. This makes the ADAPTA universal kinase assay ideally suited for use with low activity kinases.
(§5) The principle of the ADAPTA universal kinase assay is outlined below. The assay itself can be divided into two phases: a kinase reaction phase, and an ADP detection phase. In the kinase reaction phase, all components required for the kinase reaction are added to the well, and the reaction is allowed to incubate for 60 minutes.
(§6) Z′-LYTE® Assay Conditions:
(§7) Test Compounds: The Test Compounds are screened in 1% DMSO (final) in the well. For 10 point titrations, 3-fold serial dilutions are conducted from the starting concentration.
(§8) Peptide/Kinase Mixtures: All Peptide/Kinase Mixtures are diluted to a 2× working concentration in the appropriate Kinase Buffer.
(§9) ATP Solution: All ATP Solutions are diluted to a 4× working concentration in Kinase Buffer (50 mM HEPES pH 7.5, 0.01% BRIJ-35, 10 mM MgCl2, 1 mM EGTA). ATP Km apparent is previously determined using a Z′-LYTE® assay.
(§10) Development Reagent Solution: The Development Reagent is diluted in Development Buffer. […]
(§11) 2.5 μL—4× Test Compound or 100 nL 100× plus 2.4 μL kinase buffer. 2. 5 μL—2× Peptide/Kinase Mixture. 3. 2.5 μL—4× ATP Solution. 4. 30-second plate shake. 5. 60-minute Kinase Reaction incubation at room temperature. 6. 5 μL—Development Reagent Solution. 7. 30-second plate shake. 8. 60-minute Development Reaction incubation at room temperature. 9.

[2] = target: EGFR (Homo sapiens (Human), UniProt P00533); assay: Z'-LYTE / Adapta kinase assay, EGFR; conditions: read-out: EGFR % Inh. @ 100 nM
Sequence of EGFR (P00533 25-1210): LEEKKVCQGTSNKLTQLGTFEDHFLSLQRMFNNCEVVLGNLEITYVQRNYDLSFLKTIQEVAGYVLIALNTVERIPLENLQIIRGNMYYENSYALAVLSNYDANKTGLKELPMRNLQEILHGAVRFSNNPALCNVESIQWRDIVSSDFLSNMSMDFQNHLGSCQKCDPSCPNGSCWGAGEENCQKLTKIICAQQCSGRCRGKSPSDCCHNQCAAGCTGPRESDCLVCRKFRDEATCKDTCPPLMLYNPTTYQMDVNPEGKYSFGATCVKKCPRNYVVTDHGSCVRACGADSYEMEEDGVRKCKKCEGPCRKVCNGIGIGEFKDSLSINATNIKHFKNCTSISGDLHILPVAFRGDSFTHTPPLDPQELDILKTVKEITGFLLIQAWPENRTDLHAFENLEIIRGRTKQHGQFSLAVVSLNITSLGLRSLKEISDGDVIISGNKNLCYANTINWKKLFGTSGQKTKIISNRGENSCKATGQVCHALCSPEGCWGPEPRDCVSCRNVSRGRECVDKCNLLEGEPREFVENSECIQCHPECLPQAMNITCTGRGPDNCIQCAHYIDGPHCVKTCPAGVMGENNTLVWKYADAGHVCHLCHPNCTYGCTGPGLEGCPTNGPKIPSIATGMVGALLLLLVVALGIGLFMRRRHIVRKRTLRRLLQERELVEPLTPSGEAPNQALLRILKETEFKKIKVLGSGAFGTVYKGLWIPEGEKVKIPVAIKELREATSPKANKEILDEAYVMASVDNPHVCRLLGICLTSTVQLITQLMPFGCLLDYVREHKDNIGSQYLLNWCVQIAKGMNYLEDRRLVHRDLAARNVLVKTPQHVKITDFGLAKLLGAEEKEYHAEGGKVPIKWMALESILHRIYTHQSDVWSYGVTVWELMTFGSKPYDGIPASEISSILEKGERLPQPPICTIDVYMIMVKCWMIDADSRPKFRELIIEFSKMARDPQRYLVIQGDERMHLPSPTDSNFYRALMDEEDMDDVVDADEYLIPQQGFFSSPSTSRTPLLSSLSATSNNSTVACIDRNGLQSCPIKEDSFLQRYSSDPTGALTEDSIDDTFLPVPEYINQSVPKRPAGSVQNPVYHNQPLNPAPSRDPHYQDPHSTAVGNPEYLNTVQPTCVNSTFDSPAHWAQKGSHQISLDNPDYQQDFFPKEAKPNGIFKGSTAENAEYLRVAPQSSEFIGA
From the text: as §1, §2, §3, §4, §5, §6, §7, §8, §9, §10, §11

[3] = target: PI3Ka (Homo sapiens (Human), UniProt P42336); assay: Z'-LYTE / Adapta kinase assay, PI3Ka; conditions: read-out: PI3Ka % Inh. @ 100 nM
Sequence of PI3Ka (P42336 whole entry): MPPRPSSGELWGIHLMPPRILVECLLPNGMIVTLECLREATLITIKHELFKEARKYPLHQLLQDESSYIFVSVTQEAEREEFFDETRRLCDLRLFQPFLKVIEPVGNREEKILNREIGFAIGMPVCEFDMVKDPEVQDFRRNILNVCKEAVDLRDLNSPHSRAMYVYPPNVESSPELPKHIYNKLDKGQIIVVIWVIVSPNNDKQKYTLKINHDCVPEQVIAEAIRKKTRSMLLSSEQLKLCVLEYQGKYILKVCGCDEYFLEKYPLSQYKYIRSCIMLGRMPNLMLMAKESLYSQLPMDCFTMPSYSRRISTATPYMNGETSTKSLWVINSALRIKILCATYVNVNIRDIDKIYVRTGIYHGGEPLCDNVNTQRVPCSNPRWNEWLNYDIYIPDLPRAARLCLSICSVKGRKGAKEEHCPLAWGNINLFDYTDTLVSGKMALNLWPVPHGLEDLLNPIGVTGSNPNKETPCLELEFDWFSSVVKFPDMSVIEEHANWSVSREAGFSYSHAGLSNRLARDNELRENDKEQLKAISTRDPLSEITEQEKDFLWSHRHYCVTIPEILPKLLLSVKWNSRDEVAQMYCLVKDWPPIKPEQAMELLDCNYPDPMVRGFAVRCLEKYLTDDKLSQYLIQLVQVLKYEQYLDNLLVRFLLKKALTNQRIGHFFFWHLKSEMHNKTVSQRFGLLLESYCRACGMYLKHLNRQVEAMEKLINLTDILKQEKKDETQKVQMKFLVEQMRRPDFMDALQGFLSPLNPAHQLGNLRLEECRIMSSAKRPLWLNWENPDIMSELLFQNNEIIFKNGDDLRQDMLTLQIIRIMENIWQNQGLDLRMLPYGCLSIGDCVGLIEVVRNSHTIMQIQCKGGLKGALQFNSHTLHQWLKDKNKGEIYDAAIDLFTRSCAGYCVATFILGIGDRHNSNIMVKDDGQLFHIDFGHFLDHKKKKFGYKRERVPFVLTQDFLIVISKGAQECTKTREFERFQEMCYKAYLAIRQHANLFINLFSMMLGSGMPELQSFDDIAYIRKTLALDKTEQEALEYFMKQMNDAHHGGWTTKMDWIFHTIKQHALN
Sequence of PI3Ka (P27986 whole entry partner): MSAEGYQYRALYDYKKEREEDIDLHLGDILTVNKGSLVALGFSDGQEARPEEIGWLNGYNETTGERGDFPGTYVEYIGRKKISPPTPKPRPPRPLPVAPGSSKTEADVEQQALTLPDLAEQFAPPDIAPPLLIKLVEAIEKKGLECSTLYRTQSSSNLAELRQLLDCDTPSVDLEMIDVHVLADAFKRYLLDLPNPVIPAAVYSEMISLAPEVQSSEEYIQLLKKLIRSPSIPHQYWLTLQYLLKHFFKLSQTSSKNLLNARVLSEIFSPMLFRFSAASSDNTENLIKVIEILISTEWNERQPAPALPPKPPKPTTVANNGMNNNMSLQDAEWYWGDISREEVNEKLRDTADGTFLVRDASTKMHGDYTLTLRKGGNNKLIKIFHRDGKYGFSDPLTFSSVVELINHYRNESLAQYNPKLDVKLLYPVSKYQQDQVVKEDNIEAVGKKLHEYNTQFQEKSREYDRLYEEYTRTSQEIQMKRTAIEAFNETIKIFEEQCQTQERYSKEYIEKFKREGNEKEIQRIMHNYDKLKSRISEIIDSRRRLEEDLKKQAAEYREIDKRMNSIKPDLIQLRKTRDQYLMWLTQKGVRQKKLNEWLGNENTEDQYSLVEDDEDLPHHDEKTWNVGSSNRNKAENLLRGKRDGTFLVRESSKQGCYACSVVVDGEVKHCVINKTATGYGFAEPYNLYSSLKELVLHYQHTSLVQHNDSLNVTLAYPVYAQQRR
From the text: as §1, §2, §3, §4, §5, §6, §7, §8, §9, §10, §11

| SMILES | inhibition at 0.1 µM [1] | inhibition at 0.1 µM [2] | inhibition at 0.1 µM [3] |
| --- | --- | --- | --- |
| CC(Nc1c(C#N)cnc2ccc(-c3cncc(O)c3)cc12)c1ccccc1 (stereo not drawn) [Compound 61, 6-(5-hydroxy-3-pyridyl)-4-(1-phenylethylamino) quinoline-3-carbonitrile] | 10 to 80% | 80 to 90% | < 10% |
| CC(Nc1c(C#N)cnc2ccc(-c3cnc(N)c(C(F)(F)F)c3)cc12)c1ccccc1 (stereo not drawn) [Compound 62, 6-(6-amino-5-(trifluoromethyl)pyridin-3-yl)-4-((1-phenylethyl)amino)quinoline-3-carbonitrile] | 10 to 80% | 10 to 80% | < 10% |
| CC(Nc1c(C#N)cnc2ccc(-c3cncc(C#N)c3)cc12)c1ccccc1 (stereo not drawn) [Compound 64, 6-(5-cyano-3-pyridyl)-4-(1-phenylethylamino) quinoline-3-carbonitrile] | 10 to 80% | 10 to 80% | 10 to 80% |
| CC(Nc1c(C#N)cnc2ccc(-c3cnc(N)c(C#N)c3)cc12)c1ccccc1 (stereo not drawn) [Compound 65, 6-(6-amino-5-cyano-3-pyridyl)-4-(1-phenylethylamino) quinoline-3-carbonitrile] | 10 to 80% | 80 to 90% | 10 to 80% |
| CC(Nc1c(C#N)cnc2ccc(-c3cncc(C(C)(C)O)c3)cc12)c1ccccc1 (stereo not drawn) [Compound 67, 6-[5-(1-hydroxy-1-methyl-ethyl)-3-pyridyl]-4-(1-phenylethylamino) quinoline-3-carbonitrile] | 10 to 80% | 10 to 80% | 10 to 80% |
| COc1cc(-c2ccc3ncc(C#N)c(NC(C)c4ccccc4)c3c2)cnc1OC (stereo not drawn) [Compound 68, 6-(5,6-dimethoxy-3-pyridyl)-4-(1-phenylethylamino)quinoline-3-carbonitrile] | 10 to 80% | 80 to 90% | 10 to 80% |
| CC(Nc1c(C#N)cnc2ccc(-c3cnc4[nH]nnc4c3)cc12)c1ccccc1 (stereo not drawn) [Compound 70, 4-(1-phenylethylamino)-6-(3H-triazolo [4,5-b]pyridin-6-yl) quinoline-3-carbonitrile] | 10 to 80% | 80 to 90% | 10 to 80% |
| CC(Nc1c(C#N)cnc2ccc(-c3cnc4cnn(C)c4c3)cc12)c1ccccc1 (stereo not drawn) [Compound 73, 6-(1-methylpyrazolo [4,3-b]pyridin-6-yl)-4-(1-phenylethylamino) quinoline-3-carbonitrile] | < 10% | 10 to 80% | 10 to 80% |
| CC(Nc1c(C#N)cnc2ccc(-c3ccc4oc(N)nc4c3)cc12)c1ccccc1 (stereo not drawn) [Compound 87, 6-(2-amino-1,3-benzoxazol-5-yl)-4-(1-phenylethylamino) quinoline-3-carbonitrile] | < 10% | 80 to 90% | 10 to 80% |
| CC(Nc1c(C#N)cnc2ccc(-c3cnc4ccccc4c3)cc12)c1ccccc1 (stereo not drawn) [Compound 122, 4-(1-phenylethylamino)-6-(3-quinolyl)quinoline-3-carbonitrile] | < 10% | 10 to 80% | < 10% |
| CC(Nc1c(C#N)cnc2ccc(-c3cccnc3)cc12)c1ccccc1 (stereo not drawn) [Compound 123, 4-(1-phenylethylamino)-6-(3-pyridyl) quinoline-3-carbonitrile] | 10 to 80% | > 90% | < 10% |
| CC(Nc1c(C#N)cnc2ccc(-c3n[nH]c4ccncc34)cc12)c1ccccc1 (stereo not drawn) [Compound 124, 4-(1-phenylethylamino)-6-(1H-pyrazolo [4,3-c]pyridin-3-yl) quinoline-3-carbonitrile] | < 10% | > 90% | < 10% |

The remaining lines, values ahead:

| inhibition at 0.1 µM [1] | inhibition at 0.1 µM [2] | inhibition at 0.1 µM [3] | SMILES |
| --- | --- | --- | --- |
| 10 to 80% | > 90% | < 10% | CC(Nc1c(C#N)cnc2ccc(-c3n[nH]c4cnccc34)cc12)c1ccccc1 (stereo not drawn) [Compound 125, 4-(1-phenylethylamino)-6-(1H-pyrazolo [3,4-c]pyridin-3-yl)quinoline-3-carbonitrile] |
| < 10% | 10 to 80% | 10 to 80% | COc1ncc(-c2ccc3ncc(C#N)c(NC(C)c4ccccc4)c3c2)cc1C#N (stereo not drawn) [Compound 126, 6-(5-cyano-6-methoxy-3-pyridyl)-4-(1-phenylethylamino) quinoline-3-carbonitrile] |
| 10 to 80% | 80 to 90% | < 10% | CC(Nc1c(C#N)cnc2ccc(-c3cccc(-c4n[nH]c(=O)o4)c3)cc12)c1ccccc1 (stereo not drawn) [Compound 127, 6-[3-(2-oxo-3H-1,3,4-oxadiazol-5-yl)phenyl]-4-(1-phenylethylamino) quinoline-3-carbonitrile] |
| < 10% | 80 to 90% | < 10% | CC(Nc1c(C#N)cnc2ccc(-c3cccc(-c4nnc[nH]4)c3)cc12)c1ccccc1 (stereo not drawn) [Compound 128, 4-(1-phenylethylamino)-6-[3-(4H-1,2,4-triazol-3-yl)phenyl]quinoline-3-carbonitrile] |
| < 10% | 10 to 80% | < 10% | CC(Nc1c(C#N)cnc2ccc(-c3cc(F)c(O)c(F)c3)cc12)c1ccccc1 (stereo not drawn) [Compound 130, 6-(3,5-difluoro-4-hydroxy-phenyl)-4-(1-phenylethylamino) quinoline-3-carbonitrile] |
| < 10% | 10 to 80% | < 10% | CC(Nc1c(C#N)cnc2ccc(-c3cc(Cl)c(O)c(Cl)c3)cc12)c1ccccc1 (stereo not drawn) [Compound 131, 6-(3,5-dichloro-4-hydroxy-phenyl)-4-(1-phenylethylamino) quinoline-3-carbonitrile] |
| < 10% | 10 to 80% | < 10% | COc1ncc(-c2ccc3ncnc(N[C@H](C)c4ccccc4)c3c2)cc1C#N [Compound 132, 2-methoxy-5-[4-[[(1R)-1-phenylethyl]amino]quinazolin-6-yl]pyridine-3-carbonitrile] |
| < 10% | < 10% | < 10% | C[C@@H](Nc1ncnc2ccc(-c3cncc(C(=O)NC#N)c3)cc12)c1ccccc1 [Compound 133, (R)-N-cyano-5-(4-((1-phenylethyl)amino)quinazolin-6-yl)nicotinamide] |
| < 10% | > 90% | < 10% | C[C@@H](Nc1ncnc2ccc(-c3cncc(C(=O)N(C)O)c3)cc12)c1ccccc1 [Compound 134, (R)-N-hydroxy-N-methyl-5-(4-((1-phenylethyl)amino)quinazolin-6-yl)nicotinamide] |
| < 10% | > 90% | < 10% | COC(=O)c1cncc(-c2ccc3ncnc(N[C@H](C)c4ccccc4)c3c2)c1 [Compound 135, methyl 5-[4-[[(1R)-1-phenylethyl]amino]quinazolin-6-yl]pyridine-3-carboxylate] |
| < 10% | > 90% | < 10% | C[C@@H](Nc1ncnc2ccc(-c3ccc4c(c3)C(=O)OC4)cc12)c1ccccc1 [Compound 136, 6-[4-[[(1R)-1-phenylethyl]amino]quinazolin-6-yl]-3H-isobenzofuran-1-one] |
| < 10% | > 90% | 10 to 80% | C[C@@H](Nc1ncnc2ccc(-c3cccc(-c4nnc[nH]4)c3)cc12)c1ccccc1 [Compound 137, N-[(1R)-1-phenylethyl]-6-[3-(4H-1,2,4-triazol-3-yl)phenyl]quinazolin-4-amine] |
| 10 to 80% | > 90% | < 10% | C[C@@H](Nc1ncnc2ccc(-c3cncc(-c4nnc[nH]4)c3)cc12)c1ccccc1 [Compound 138, (R)-6-(5-(4H-1,2,4-triazol-3-yl)pyridin-3-yl)-N-(1-phenylethyl)quinazolin-4-amine] |
